# How the values were obtained:
# [1] = Anti-wrinkle effect in vivo in man (verification of the predictive value of the nerve/muscle test); conditions: in vivo chez l'homme
# Source text: (§1) Ce test est prédictif d'un effet anti-rides, comme cela a été vérifié par la Demanderesse sur le diazépam, qui est à la fois actif in vivo chez l'homme et dans ce test à 10^-4 M.
# [2] = system: jonction nerf / muscle (plaque motrice); experiment: Nerve/muscle junction model (motor end plate): isolated rat phrenic nerve / diaphragm preparation, contractions induced by indirect stimulation; conditions: for inhibition at 100 µM: Rattus norvegicus, concentration 10^-4 M, contractions induced by stimulation of the phrenic nerve (0.1 à 0.5 volts, 0.3 ms, 0.1 Hz), read-out: % INHIBITION DES CONTRACTIONS
# Method: Le composé 1 a été testé sur un modèle de jonction nerf / muscle (plaque motrice) obtenu dans une préparation nerf phrénique / diaphragme isolé de rat (muscle strié) (Pollard B.J. et al, Br.J. Anaesth., 1988, 61, 419-424).
# as §1
# Le nerf phrénique et le diaphragme sont soigneusement isolés et placés dans une cuve de 50 ml remplie de liquide de survie (liquide de Krebs Henseleit) maintenu à une température de 37°C et oxygéné à l'aide d'un mélange oxygène/CO2 (95/5).
# Les variations de tension du diaphragme sont enregistrées avec une pré-charge initiale de plusieurs grammes.
# Après une période de relaxation de 30 mn, le diaphragme est stimulé indirectement par l'intermédiaire du nerf phrénique.
# Sur chaque préparation, l'effet du composé à tester a été évalué sur les contractions induites par stimulation indirecte via stimulation sur le nerf phrénique (0.1 à 0.5 volts, 0.3 ms, 0.1 Hz). L'alvérine, connue comme composé myorelaxant à effet anti-rides d'après la demande FR-2 798 590, est utilisée comme témoin.
# [3] = molecular target: canaux calciques de type L, site vérapamil (Rattus norvegicus, UniProt P22002); experiment: Calcium channel test: competitive inhibition of [3H](-) D 888 binding, rat cerebral cortex homogenates
# Chain of canaux calciques de type L, site vérapamil (P22002 whole entry): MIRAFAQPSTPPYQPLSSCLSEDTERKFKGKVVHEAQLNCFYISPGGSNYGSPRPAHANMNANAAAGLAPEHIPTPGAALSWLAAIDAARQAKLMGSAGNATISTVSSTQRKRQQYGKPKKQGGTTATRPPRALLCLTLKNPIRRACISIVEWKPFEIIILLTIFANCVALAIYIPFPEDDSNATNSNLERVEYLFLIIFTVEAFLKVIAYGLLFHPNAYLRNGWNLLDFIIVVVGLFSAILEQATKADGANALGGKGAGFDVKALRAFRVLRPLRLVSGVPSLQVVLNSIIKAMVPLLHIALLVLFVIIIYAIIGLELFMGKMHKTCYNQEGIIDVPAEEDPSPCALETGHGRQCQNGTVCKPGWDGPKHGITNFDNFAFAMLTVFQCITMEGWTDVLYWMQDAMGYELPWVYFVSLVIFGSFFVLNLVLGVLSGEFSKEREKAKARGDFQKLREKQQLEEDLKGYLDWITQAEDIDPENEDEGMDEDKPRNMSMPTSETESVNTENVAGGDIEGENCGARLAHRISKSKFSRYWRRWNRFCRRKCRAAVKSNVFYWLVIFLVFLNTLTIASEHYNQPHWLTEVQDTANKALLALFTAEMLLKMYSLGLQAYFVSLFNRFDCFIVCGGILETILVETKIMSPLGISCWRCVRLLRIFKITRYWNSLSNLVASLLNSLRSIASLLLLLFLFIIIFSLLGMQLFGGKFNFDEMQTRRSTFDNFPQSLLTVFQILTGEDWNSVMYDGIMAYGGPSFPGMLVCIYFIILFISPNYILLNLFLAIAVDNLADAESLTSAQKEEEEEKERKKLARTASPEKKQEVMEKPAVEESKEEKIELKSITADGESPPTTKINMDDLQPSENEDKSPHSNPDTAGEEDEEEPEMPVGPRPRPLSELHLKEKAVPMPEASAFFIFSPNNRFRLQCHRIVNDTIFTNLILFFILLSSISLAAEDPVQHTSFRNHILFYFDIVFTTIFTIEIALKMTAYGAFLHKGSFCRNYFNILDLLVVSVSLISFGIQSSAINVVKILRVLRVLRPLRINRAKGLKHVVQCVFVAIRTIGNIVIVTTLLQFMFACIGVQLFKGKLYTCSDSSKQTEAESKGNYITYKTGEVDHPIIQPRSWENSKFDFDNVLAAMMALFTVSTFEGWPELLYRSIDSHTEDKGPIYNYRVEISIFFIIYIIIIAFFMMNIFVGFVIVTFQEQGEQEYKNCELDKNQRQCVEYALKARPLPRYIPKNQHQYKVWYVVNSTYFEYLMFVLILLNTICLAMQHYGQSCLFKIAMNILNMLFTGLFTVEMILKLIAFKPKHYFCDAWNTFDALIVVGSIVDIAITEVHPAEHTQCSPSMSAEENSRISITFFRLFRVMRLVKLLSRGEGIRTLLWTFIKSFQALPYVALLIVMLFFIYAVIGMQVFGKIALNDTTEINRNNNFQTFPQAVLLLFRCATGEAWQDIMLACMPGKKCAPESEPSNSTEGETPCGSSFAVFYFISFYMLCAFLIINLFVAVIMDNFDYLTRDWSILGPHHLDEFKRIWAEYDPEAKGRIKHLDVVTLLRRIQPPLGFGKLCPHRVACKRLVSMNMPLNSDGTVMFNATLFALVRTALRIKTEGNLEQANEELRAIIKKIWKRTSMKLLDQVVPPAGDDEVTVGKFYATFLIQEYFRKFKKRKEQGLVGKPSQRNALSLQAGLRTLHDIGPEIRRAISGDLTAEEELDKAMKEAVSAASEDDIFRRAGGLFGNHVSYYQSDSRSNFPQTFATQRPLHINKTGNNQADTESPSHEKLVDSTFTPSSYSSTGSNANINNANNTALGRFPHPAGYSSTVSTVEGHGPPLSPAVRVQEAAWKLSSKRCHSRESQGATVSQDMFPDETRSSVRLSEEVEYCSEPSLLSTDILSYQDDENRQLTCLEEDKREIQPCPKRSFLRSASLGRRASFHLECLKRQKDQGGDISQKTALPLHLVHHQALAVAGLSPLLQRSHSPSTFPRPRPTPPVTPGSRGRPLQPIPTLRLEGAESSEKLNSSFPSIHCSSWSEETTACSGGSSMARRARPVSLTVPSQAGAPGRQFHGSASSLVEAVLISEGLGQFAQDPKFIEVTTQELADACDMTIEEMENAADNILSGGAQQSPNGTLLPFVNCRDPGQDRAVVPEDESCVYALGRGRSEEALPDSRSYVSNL
# Source text: Le test mesure la capacité d'un produit à inhiber par compétition la fixation d'[…] de canaux calciques de type L, type Vérapamil. Ces canaux ont été identifiés au niveau des fibroblastes humains (Baumgarten LB and coll (1992), J. Biol. Chem, 267, 10524-10530 et Chen CF and coll (1988), Science, 239, 1024-1026).
# Les études sont réalisées à partir d'homogénats de cortex cérébral de rat (membranes isolées présentant à leur surface notamment les canaux calciques de type L).
# Les conditions expérimentales selon le protocole décrit par Reynolds I.J. et al., 1986, J. Pharmacol. Exp. Ther., 237, p.731, sont présentées dans le tableau 1 ci-dessous : Tableau 1
# D888 et D600 sont les molécules de référence spécifiques des canaux calciques de type L, site vérapamil.
# La liaison spécifique d'un ligand (D888 marqué) aux récepteurs (canaux calciques de type L, site vérapamil) est défini comme la différence entre la liaison totale et la liaison non spécifique déterminée en présence d'un excès de ligand non radioactif. Les résultats sont exprimés en pourcentage de liaison spécifique témoin et en pourcentage d'inhibition de cette liaison en présence des composés testés.
# Les valeurs d'IC50 (concentration inhibant 50% de la liaison spécifique témoin) et du coefficient de Hill (nH) sont calculées pour les composés testés à partir des courbes de compétition selon un modèle de régression non linéaire. […]
Compound,activity in vivo (anti-wrinkle effect) [1],activity in the nerve/muscle junction test ([2]; 10^-4 M),inhibition at 100 µM [2],"IC50 ([3]; ligand [^3H](-) D 888 0.5 nM, non-specific D 600 (10 µM), 60 min. /22°C, measured in duplicate)",calcium channel inhibition compared with alvérine ([3]; conclusion from the IC50 values of Tableau 2)
CN1C(=O)CN=C(c2ccccc2)c2cc(Cl)ccc21 [diazépam],actif,actif,–,–,–
CCN(CCCc1ccccc1)CCCc1ccccc1 [Alvérine],–,–,100%,693 nM,–
"CCCCCC(O)(CCCCC)CCN(CC)CCCc1ccccc1 [Composé 1, 6-[2-{ethyl-(3-phenyl-propyl)amino}-ethyl]-undecan-6-ol]",–,–,100%,–,meilleur inhibiteur de canaux calciques que l'alvérine

# Source: EP1420008B1, “Composition, in particular cosmetic, comprising a secondary or tertiary amine” (L'ORÉAL, priority 2002, dated 2004)
